In patent US7119077B1, “Multimeric forms of members of the steroid/thyroid superfamily of receptors with the ultraspiracle receptor” (The Salk Institute for Biological Studies, priority 1990, dated 2006):

Experiments:
[1] = molecular target: EcR/usp complex (Drosophila melanogaster, UniProt P20153+P34021); conditions: cold oligonucleotide competitor, in vitro translated EcR and usp
[2] = molecular target: T1, EcR/usp heterodimer (Drosophila melanogaster, UniProt P34021;P20153 P34021:1-878,P20153:1-508); assay: competition; effective competitor of hsp27-EcRE binding
T1 sequence 1: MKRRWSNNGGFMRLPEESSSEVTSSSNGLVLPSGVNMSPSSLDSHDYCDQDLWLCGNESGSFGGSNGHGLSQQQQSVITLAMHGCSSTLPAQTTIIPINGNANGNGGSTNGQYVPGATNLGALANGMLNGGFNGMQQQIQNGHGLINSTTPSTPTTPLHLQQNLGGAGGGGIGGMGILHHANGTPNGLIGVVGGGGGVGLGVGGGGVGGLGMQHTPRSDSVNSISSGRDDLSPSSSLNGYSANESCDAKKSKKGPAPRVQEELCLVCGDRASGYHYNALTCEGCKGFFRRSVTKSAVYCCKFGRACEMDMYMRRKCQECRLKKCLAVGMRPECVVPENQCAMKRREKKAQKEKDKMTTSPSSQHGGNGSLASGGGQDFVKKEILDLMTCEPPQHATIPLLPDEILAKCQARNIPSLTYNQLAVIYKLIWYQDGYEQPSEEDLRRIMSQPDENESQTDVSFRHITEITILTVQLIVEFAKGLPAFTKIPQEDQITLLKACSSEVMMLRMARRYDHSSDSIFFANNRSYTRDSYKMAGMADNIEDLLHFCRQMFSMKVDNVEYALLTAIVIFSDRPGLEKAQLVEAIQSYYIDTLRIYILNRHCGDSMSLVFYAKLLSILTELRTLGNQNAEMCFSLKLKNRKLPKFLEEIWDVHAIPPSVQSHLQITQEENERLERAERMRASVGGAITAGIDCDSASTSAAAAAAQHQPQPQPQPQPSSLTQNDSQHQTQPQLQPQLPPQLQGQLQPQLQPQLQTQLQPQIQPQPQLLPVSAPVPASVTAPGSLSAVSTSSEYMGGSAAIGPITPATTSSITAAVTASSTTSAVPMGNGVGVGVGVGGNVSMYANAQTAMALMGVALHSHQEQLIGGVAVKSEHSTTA
T1 sequence 2: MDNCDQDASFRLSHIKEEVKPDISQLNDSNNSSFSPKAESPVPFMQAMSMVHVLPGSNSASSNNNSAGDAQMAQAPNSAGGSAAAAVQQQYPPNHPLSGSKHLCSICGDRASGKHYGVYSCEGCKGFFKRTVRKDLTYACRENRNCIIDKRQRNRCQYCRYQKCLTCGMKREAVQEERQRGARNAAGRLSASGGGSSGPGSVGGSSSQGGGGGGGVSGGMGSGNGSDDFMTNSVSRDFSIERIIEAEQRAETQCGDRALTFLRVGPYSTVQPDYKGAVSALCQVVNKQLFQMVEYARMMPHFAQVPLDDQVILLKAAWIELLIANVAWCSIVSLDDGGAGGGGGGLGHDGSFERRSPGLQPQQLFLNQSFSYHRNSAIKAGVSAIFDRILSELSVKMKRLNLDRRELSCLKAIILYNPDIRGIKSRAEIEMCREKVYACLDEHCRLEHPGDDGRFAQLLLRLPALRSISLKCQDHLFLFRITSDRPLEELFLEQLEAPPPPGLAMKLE

Chain of EcR/usp complex (P20153 with tags, fused parts or gaps limits assumed, one chain of several): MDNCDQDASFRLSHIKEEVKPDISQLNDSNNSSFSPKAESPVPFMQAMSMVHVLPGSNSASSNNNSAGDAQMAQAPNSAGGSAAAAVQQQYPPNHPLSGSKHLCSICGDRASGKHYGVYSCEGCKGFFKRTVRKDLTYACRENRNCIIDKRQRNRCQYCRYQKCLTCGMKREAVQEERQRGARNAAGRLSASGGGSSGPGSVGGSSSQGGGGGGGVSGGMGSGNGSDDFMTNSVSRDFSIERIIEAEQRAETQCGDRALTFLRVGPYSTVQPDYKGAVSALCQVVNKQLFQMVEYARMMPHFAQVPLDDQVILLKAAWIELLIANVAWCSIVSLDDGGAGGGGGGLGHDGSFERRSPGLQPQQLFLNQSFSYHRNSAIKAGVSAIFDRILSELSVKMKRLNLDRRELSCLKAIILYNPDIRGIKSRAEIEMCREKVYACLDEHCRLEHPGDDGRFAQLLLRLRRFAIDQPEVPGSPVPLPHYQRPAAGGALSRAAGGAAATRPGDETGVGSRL

With “Eip28/29-EcRE: EcRE derived from the Drosophila Eip28/29 gene, composite element with direct repeat and degenerated palindromic motif (DNA TAAAGGATCTTGACCCCAATGAACTTCTTA; further chemistry not given here)” the “competition of EcR/usp binding to hsp27-EcRE” value (“competition of EcR/usp binding” below) [1] was “can effectively compete”.

With “15N-EcRE: back mutation of hsp27-EcRE which regenerated the palindrome motif (DNA ATGAAGTGCATTGAACCCGCTCGA; further chemistry not given here)” the “competition of EcR/usp binding” value [1] was “effective competition”.

In the case of “11N-EcRE: mutant hsp27-EcRE, two nucleotides at the ends of the palindrome and the flanking sequence changed (DNA ATGCTGTGCATTGAACGTGCTCGA; further chemistry not given here)”, the “competition of EcR/usp binding” value [1] is reported as “did not compete”.

B1: 15N-EcRE (dsDNA)
DNA 1: ATGAAGTGCATTGAACCCGCTCGA
DNA 2: TCGAGCGGGTTCAATGCACTTCAT
B1: binds [2].
